From paper doi:10.1101/2024.07.16.603720v1 (biorxiv, 2024) come the findings set out here.

The test system of data set [1] is A. baumannii AB19606 WT (19606). Put plainly: microbe, parasite or virus in culture. Set-up: species or system Acinetobacter baumannii AB19606. As to conditions: Acinetobacter baumannii, read-out: MIC.
Data set [2] has as its target T1, sDacD (sPBP6b) (Acinetobacter baumannii, UniProt A0ABX6CI93).
T1 sequence (A0ABX6CI93 22-409): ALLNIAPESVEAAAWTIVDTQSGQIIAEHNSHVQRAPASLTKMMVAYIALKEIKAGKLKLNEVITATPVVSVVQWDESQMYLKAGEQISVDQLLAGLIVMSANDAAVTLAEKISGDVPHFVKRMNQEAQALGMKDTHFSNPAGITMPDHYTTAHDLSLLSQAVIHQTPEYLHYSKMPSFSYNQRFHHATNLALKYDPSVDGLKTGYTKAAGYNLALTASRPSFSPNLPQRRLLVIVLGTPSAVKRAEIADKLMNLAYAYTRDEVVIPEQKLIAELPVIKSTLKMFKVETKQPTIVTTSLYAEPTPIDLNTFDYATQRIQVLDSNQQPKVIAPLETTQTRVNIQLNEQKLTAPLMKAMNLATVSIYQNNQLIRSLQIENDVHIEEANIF
Put plainly: Bocillin FL competition, SDS-PAGE fluorescence. It counts as binding.

In data set [3] the target is T2, sDacC (sPBP5/6) (Acinetobacter baumannii, UniProt G1C735).
T2 sequence (G1C735 20-367): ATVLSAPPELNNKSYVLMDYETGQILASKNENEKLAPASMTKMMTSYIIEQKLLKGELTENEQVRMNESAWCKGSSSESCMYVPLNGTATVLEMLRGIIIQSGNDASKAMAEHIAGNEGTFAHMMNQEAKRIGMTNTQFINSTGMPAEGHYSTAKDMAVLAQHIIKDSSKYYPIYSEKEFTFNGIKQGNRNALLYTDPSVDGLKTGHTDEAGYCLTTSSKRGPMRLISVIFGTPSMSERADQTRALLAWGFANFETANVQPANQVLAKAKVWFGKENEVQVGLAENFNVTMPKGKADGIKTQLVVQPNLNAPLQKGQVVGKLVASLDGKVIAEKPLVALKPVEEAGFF
Put plainly: Bocillin FL competition, SDS-PAGE fluorescence. It counts as binding.

Data set [4] concerns the target T2, sDacC (sPBP5/6). Put plainly: biochemical.
In data set [5] the target is T1, sDacD (sPBP6b). Put plainly: biochemical.
Substrate in data set [6]: CC1(C)S[C@@H]2[C@H](NC(=O)Cc3ccccc3)C(=O)N2[C@H]1C(=O)O
Put plainly: purified protein. As to conditions: 10 mM phosphate, pH 7.4, 30 °C.

Substrate in data set [7]: CC1(C)S[C@@H]2[C@H](NC(=O)[C@H](C(=O)O)c3ccsc3)C(=O)N2[C@H]1C(=O)O
Put plainly: purified protein. As to conditions: 10 mM phosphate, pH 7.4, 30 °C.

Substrate in data set [8]: C[C@@H](O)[C@H]1C(=O)N2C(C(=O)O)=C(SCCN=CN)C[C@H]12
Put plainly: purified protein. Particulars: 10 mM phosphate, pH 7.4, 30 °C.

Substrate in data set [9]: CO/N=C(\C(=O)N[C@@H]1C(=O)N2C(C(=O)O)=C(COC(C)=O)CS[C@H]12)c1csc(N)n1
Put plainly: purified protein. Particulars: 10 mM phosphate, pH 7.4, 30 °C.

Substrate in data set [10]: CC(C)(O/N=C(\C(=O)N[C@@H]1C(=O)N2C(C(=O)[O-])=C(C[n+]3ccccc3)CS[C@H]12)c1csc(N)n1)C(=O)O
Put plainly: purified protein, by the assay type. As to conditions: pH 7.4; 30.0 °C.

Substrate in data set [11]: NC(=O)c1cc[n+](CC2=C(C(=O)O)N3C(=O)[C@@H](NC(=O)[C@@H](c4ccccc4)S(=O)(=O)[O-])[C@H]3SC2)cc1
Nature of the data set: purified protein, by the assay type. As to conditions: pH 7.4; 30.0 °C.

Substrate in data set [12]: C[C@@H](O)[C@H]1C(=O)N2C(C(=O)O)=C(S[C@@H]3CN[C@H](C(=O)N(C)C)C3)[C@H](C)[C@H]12
Nature of the data set: purified protein, by the assay type. As to conditions: pH 7.4; 30.0 °C.

Substrate in data set [13]: C[C@@H](O)[C@H]1C(=O)N2C(C(=O)O)=C(S[C@@H]3CN[C@H](CNS(N)(=O)=O)C3)[C@H](C)[C@H]12
Nature of the data set: purified protein, by the assay type. Particulars: pH 7.4; 30.0 °C.

Converted amounts (≈) assume the structure as drawn.

Consider `CC1(C)S[C@@H]2[C@H](NC(=O)[C@H](N)c3ccc(O)cc3)C(=O)N2[C@H]1C(=O)O` [AMX, Amoxicillin], for which, in data set [1], the MIC was found to be 1000 µg/mL (≈ 2740 µM).

Regarding `CC(C)(O/N=C(\C(=O)N[C@@H]1C(=O)N2C(C(=O)[O-])=C(C[n+]3ccccc3)CS[C@H]12)c1csc(N)n1)C(=O)O` [CAZ, Ceftazidime], the MIC in data set [1] came to 16 µg/mL (≈ 29.3 µM).

By IC50 is commonly meant the concentration at which inhibition is half-maximal. High values mean lower potency, low ones higher potency. As for `C=CC1=C(C(=O)O)N2C(=O)[C@@H](NC(=O)/C(=N\OCC(=O)O)c3csc(N)n3)[C@H]2SC1` [Cefixime], the IC50 came out at 52.8 µM at sDacD (sPBP6b) [2] and 20.9 µM at sDacC (sPBP5/6) [3].

Consider `CO/N=C(\C(=O)N[C@@H]1C(=O)N2C(C(=O)O)=C(COC(C)=O)CS[C@H]12)c1csc(N)n1` [Cefotaxime], for which the MIC in [1] came out at 64 µg/mL (≈ 141 µM).

Consider `NC(=O)c1cc[n+](CC2=C(C(=O)[O-])N3C(=O)[C@@H](NC(=O)[C@@H](c4ccccc4)S(=O)(=O)O)[C@H]3SC2)cc1` [Cefsulodin], for which the IC50 at sDacD (sPBP6b) [2] amounted to 8.6 µM; on sDacC (sPBP5/6) [3], 6.3 µM. The MIC in data set [1] was found to be 250 µg/mL (≈ 469 µM).

As for `CO/N=C(\C(=O)N[C@@H]1C(=O)N2C(C(=O)O)=C(COC(N)=O)CS[C@H]12)c1ccco1` [Cefuroxime], the IC50 at sDacD (sPBP6b) [2] turned out to be 161 µM; at sDacC (sPBP5/6) [3], 12.9 µM. Also, in data set [1], the MIC came out at 500 µg/mL (≈ 1180 µM).

With `O=C(O)[C@H]1/C(=C/CO)O[C@@H]2CC(=O)N21` [Clavulanic acid], the IC50 on sDacD (sPBP6b) [2] was 5.8 µM.

`C[C@@H](O)[C@H]1C(=O)N2C(C(=O)O)=C(S[C@@H]3CN[C@H](CNS(N)(=O)=O)C3)[C@H](C)[C@H]12` [Doripenem]: the IC50 on sDacD (sPBP6b) [2] turned out to be 1.7 µM; on sDacC (sPBP5/6) [3], 9.2 µM. In [1], the MIC was 1.6 µg/mL (≈ 3.8 µM).

Turning to `CO[C@@]1(NC(=O)Cc2cccs2)C(=O)N2C(C(=O)O)=C(COC(N)=O)CS[C@@H]21` [FOX, Cefoxitin], the MIC in data set [1] amounted to 500 µg/mL (≈ 1170 µM).

With `C[C@@H](O)[C@H]1C(=O)N2C(C(=O)O)=C(S[C@@H]3CN[C@H](C(=O)N(C)C)C3)[C@H](C)[C@H]12` [Meropenem], the results for the IC50 on sDacD (sPBP6b) [2] and on sDacC (sPBP5/6) [3] were 2.7 µM and 15.7 µM, respectively. Also, the MIC in [1] worked out at 1.6 µg/mL (≈ 4.17 µM).

Regarding `Cc1onc(-c2ccccc2)c1C(=O)N[C@@H]1C(=O)N2[C@@H]1SC(C)(C)[C@@H]2C(=O)O` [Oxacillin], the concentration for half-maximal inhibition (IC50) amounted to 417 µM at sDacD (sPBP6b) [2] and 95.9 µM on sDacC (sPBP5/6) [3]. In addition, in [1], the MIC was determined as 500 µg/mL (≈ 1250 µM).

Take `CCN1CCN(C(=O)N[C@@H](C(=O)N[C@@H]2C(=O)N3[C@@H]2SC(C)(C)[C@@H]3C(=O)O)c2ccccc2)C(=O)C1=O` [PIP, Piperacillin]: the IC50 on sDacC (sPBP5/6) [4] turned out to be 539 µM; against sDacD (sPBP6b) [5], 3280 µM. In addition, the MIC in data set [1] was found to be 500 µg/mL (≈ 966 µM).

On to `CC1(C)S[C@@H]2[C@H](NC(=O)Cc3ccccc3)C(=O)N2[C@H]1C(=O)O` [Penicillin G], for which, in data set [1], the MIC is more than 2000 µg/mL.

Take `CC1(C)[C@H](C(=O)O)N2C(=O)C[C@H]2S1(=O)=O` [Sulbactam]: the values for the IC50 on sDacC (sPBP5/6) [4] and on sDacD (sPBP6b) [2] were 184 µM and 3.8 µM, respectively.

As to `C[C@]1(Cn2ccnn2)[C@H](C(=O)O)N2C(=O)C[C@H]2S1(=O)=O` [Tazobactam], the IC50 came to 1830 µM on sDacC (sPBP5/6) [4] and 1590 µM at sDacD (sPBP6b) [5].

With `CC1(C)S[C@@H]2[C@H](NC(=O)[C@H](C(=O)O)c3ccsc3)C(=O)N2[C@H]1C(=O)O` [Ticarcillin], the MIC in data set [1] was 16 µg/mL (≈ 41.6 µM).

B1: sDacC (sPBP5/6) (Acinetobacter baumannii) (protein)
chain: T2 sequence (G1C735 20-367)
The Km is the concentration of substrate that gives half-maximal velocity. What is called kcat is the number of substrate molecules converted per active site and unit of time at saturation. For orientation: kcat/Km means the turnover number divided by the Michaelis constant. For the molecule B1, the Km in the data set “purified protein [6]” came out at 8.2 ± 1.4 µM; in “purified protein [7]”, 12.47 ± 2.5 µM; in the data set “purified protein [8]” it was 3.75 ± 0.4 µM; in the data set “purified protein [9]”, 6.09 ± 0.9 µM; in [10], 21.09 µM; in data set [11] it was 21.21 µM. In addition, the figures for the Km in [12] and in [13] were 12.19 µM and 17.39 µM, respectively. For the same molecule, the kcat in the data set “purified protein [6]” turned out to be 65.81 ± 12.5 s⁻¹; in “purified protein [7]”, 93.31 ± 9.0 s⁻¹; in the data set “purified protein [8]”, 7.52 ± 0.5 s⁻¹; in “purified protein [9]”, 7.04 ± 1.1 s⁻¹; in data set [10], 8.36 s⁻¹; in [11] it was 12.2 s⁻¹. Besides, the kcat in data set [12] stood at 10 s⁻¹; in data set [13], 5.35 s⁻¹. Moreover, the kcat/Km in data set [10] was 390000 M⁻¹ s⁻¹; in data set [11], 570000 M⁻¹ s⁻¹; in data set [12] it was 820000 M⁻¹ s⁻¹; in [13], 310000 M⁻¹ s⁻¹.
